#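 Five concentrations, 48 hours, 96-well plates. TGI is the concentration that stops growth completely.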
# Experiments:
# Experiment in all cases: NCI anticancer screen, dose series, 48 h
# MDA-N = system: MDA-N
# MDA-MB-435 = system: MDA-MB-435
# OVCAR-3 ovarian = system: OVCAR-3 ovarian
# HT29 colon = system: HT29 colon
# OVCAR-8 ovarian = system: OVCAR-8 ovarian
# K-562 leukemia = system: K-562 leukemia
# SK-MEL-2 melanoma = system: SK-MEL-2 melanoma
# SN12C renal = system: SN12C renal
# SK-MEL-28 melanoma = system: SK-MEL-28 melanoma
# SF-295 CNS = system: SF-295 CNS
# EKVX NSCLC = system: EKVX NSCLC
# RPMI-8226 leukemia = system: RPMI-8226 leukemia
# UACC-62 melanoma = system: UACC-62 melanoma
# M14 melanoma = system: M14 melanoma
# CCRF-CEM leukemia = system: CCRF-CEM leukemia
# HOP-62 NSCLC = system: HOP-62 NSCLC
# OVCAR-4 ovarian = system: OVCAR-4 ovarian
# SNB-75 CNS = system: SNB-75 CNS
# 786-0 renal = system: 786-0 renal
# SF-268 CNS = system: SF-268 CNS
# COLO 205 colon = system: COLO 205 colon
# RXF 393 renal = system: RXF 393 renal
# SK-MEL-5 melanoma = system: SK-MEL-5 melanoma
# SNB-19 CNS = system: SNB-19 CNS
# NCI/ADR-RES ovarian = system: NCI/ADR-RES ovarian
# UO-31 renal = system: UO-31 renal
# U251 CNS = system: U251 CNS
# HCT-116 colon = system: HCT-116 colon
# TK-10 renal = system: TK-10 renal
# NCI-H460 lung = system: NCI-H460 lung
# IGROV1 ovarian = system: IGROV1 ovarian
# HS 578T breast = system: HS 578T breast
# A549 NSCLC = system: A549 NSCLC
# SK-OV-3 ovarian = system: SK-OV-3 ovarian
# NCI-H522 lung = system: NCI-H522 lung
# ACHN renal = system: ACHN renal
# MDA-MB-231 breast = system: MDA-MB-231 breast
# KM12 colon = system: KM12 colon
# MALME-3M melanoma = system: MALME-3M melanoma
# BT-549 breast = system: BT-549 breast
# MOLT-4 leukemia = system: MOLT-4 leukemia
# OVCAR-5 ovarian = system: OVCAR-5 ovarian
# UACC-257 melanoma = system: UACC-257 melanoma
# HCT-15 colon = system: HCT-15 colon
# SW-620 colon = system: SW-620 colon
# NCI-H226 lung = system: NCI-H226 lung
# MCF7 breast = system: MCF7 breast
# HCC-2998 colon = system: HCC-2998 colon
# T-47D breast = system: T-47D breast
# CAKI-1 renal = system: CAKI-1 renal
# PC-3 prostate = system: PC-3 prostate
# DU-145 prostate = system: DU-145 prostate
# NCI-H23 lung = system: NCI-H23 lung
# LOX IMVI melanoma = system: LOX IMVI melanoma
# HL-60(TB) leukemia = system: HL-60(TB) leukemia
# A498 renal = system: A498 renal
# SF-539 CNS = system: SF-539 CNS
# HOP-92 NSCLC = system: HOP-92 NSCLC
smiles,measurement,setting,value
Cc1cc(N(CCC#N)CCC#N)ccc1/C(N=Nc1ccc([N+](=O)[O-])cc1)=N\NC(=O)c1cc(Cl)ccc1C(=O)c1ccccc1,TGI,MDA-N,> 100 µM
same,TGI,MDA-MB-435,> 100 µM
same,TGI,OVCAR-3 ovarian,> 100 µM
same,TGI,HT29 colon,27.4 µM
same,TGI,OVCAR-8 ovarian,26.1 µM
same,TGI,K-562 leukemia,> 100 µM
same,TGI,SK-MEL-2 melanoma,57.8 µM
same,TGI,SN12C renal,> 100 µM
same,TGI,SK-MEL-28 melanoma,> 100 µM
same,TGI,SF-295 CNS,> 100 µM
same,TGI,EKVX NSCLC,28.3 µM
same,TGI,RPMI-8226 leukemia,38.4 µM
same,TGI,UACC-62 melanoma,36.9 µM
same,TGI,M14 melanoma,> 100 µM
same,TGI,CCRF-CEM leukemia,12.5 µM
same,TGI,HOP-62 NSCLC,> 100 µM
same,TGI,OVCAR-4 ovarian,95 µM
same,TGI,SNB-75 CNS,> 100 µM
same,TGI,786-0 renal,52.7 µM
same,TGI,SF-268 CNS,42.3 µM
same,TGI,COLO 205 colon,40.6 µM
same,TGI,RXF 393 renal,57.9 µM
same,TGI,SK-MEL-5 melanoma,27.3 µM
same,TGI,SNB-19 CNS,> 100 µM
same,TGI,NCI/ADR-RES ovarian,50.9 µM
same,TGI,UO-31 renal,60.5 µM
same,TGI,U251 CNS,> 100 µM
same,TGI,HCT-116 colon,23.6 µM
same,TGI,TK-10 renal,> 100 µM
same,TGI,NCI-H460 lung,43.2 µM
same,TGI,IGROV1 ovarian,17.9 µM
same,TGI,HS 578T breast,68 µM
same,TGI,A549 NSCLC,> 100 µM
same,TGI,SK-OV-3 ovarian,> 100 µM
same,TGI,NCI-H522 lung,6.17 µM
same,TGI,ACHN renal,> 100 µM
same,TGI,MDA-MB-231 breast,91 µM
same,TGI,KM12 colon,47.8 µM
same,TGI,MALME-3M melanoma,31.1 µM
same,TGI,BT-549 breast,> 100 µM
same,TGI,MOLT-4 leukemia,38.8 µM
same,TGI,OVCAR-5 ovarian,> 100 µM
same,TGI,UACC-257 melanoma,> 100 µM
same,TGI,HCT-15 colon,37.2 µM
same,TGI,SW-620 colon,82.2 µM
same,TGI,NCI-H226 lung,34.1 µM
same,TGI,MCF7 breast,26.1 µM
same,TGI,HCC-2998 colon,30.3 µM
same,TGI,T-47D breast,50.3 µM
same,TGI,CAKI-1 renal,62.5 µM
same,TGI,PC-3 prostate,83.3 µM
same,TGI,DU-145 prostate,56.8 µM
same,TGI,NCI-H23 lung,38.6 µM
O=C(O)c1n[nH]nc1Cl,TGI,MDA-N,> 100 µM
same,TGI,MDA-MB-435,> 100 µM
same,TGI,LOX IMVI melanoma,> 100 µM
same,TGI,OVCAR-3 ovarian,> 100 µM
same,TGI,HT29 colon,> 100 µM
same,TGI,OVCAR-8 ovarian,> 100 µM
same,TGI,K-562 leukemia,> 100 µM
same,TGI,SK-MEL-2 melanoma,> 100 µM
same,TGI,SN12C renal,> 100 µM
same,TGI,SK-MEL-28 melanoma,> 100 µM
same,TGI,SF-295 CNS,> 100 µM
same,TGI,EKVX NSCLC,> 100 µM
same,TGI,RPMI-8226 leukemia,> 100 µM
same,TGI,UACC-62 melanoma,> 100 µM
same,TGI,M14 melanoma,> 100 µM
same,TGI,CCRF-CEM leukemia,> 100 µM
same,TGI,HOP-62 NSCLC,> 100 µM
same,TGI,OVCAR-4 ovarian,> 100 µM
same,TGI,SNB-75 CNS,> 100 µM
same,TGI,786-0 renal,> 100 µM
same,TGI,SF-268 CNS,> 100 µM
same,TGI,COLO 205 colon,> 100 µM
same,TGI,RXF 393 renal,> 100 µM
same,TGI,SK-MEL-5 melanoma,> 100 µM
same,TGI,HL-60(TB) leukemia,> 100 µM
same,TGI,A498 renal,> 100 µM
same,TGI,NCI/ADR-RES ovarian,> 100 µM
same,TGI,UO-31 renal,> 100 µM
same,TGI,U251 CNS,> 100 µM
same,TGI,HCT-116 colon,> 100 µM
same,TGI,TK-10 renal,> 100 µM
same,TGI,NCI-H460 lung,> 100 µM
same,TGI,IGROV1 ovarian,> 100 µM
same,TGI,HS 578T breast,> 100 µM
same,TGI,A549 NSCLC,> 100 µM
same,TGI,SK-OV-3 ovarian,> 100 µM
same,TGI,NCI-H522 lung,> 100 µM
same,TGI,ACHN renal,> 100 µM
same,TGI,MDA-MB-231 breast,> 100 µM
same,TGI,KM12 colon,> 100 µM
same,TGI,SF-539 CNS,> 100 µM
same,TGI,MALME-3M melanoma,> 100 µM
same,TGI,BT-549 breast,> 100 µM
same,TGI,OVCAR-5 ovarian,> 100 µM
same,TGI,UACC-257 melanoma,> 100 µM
same,TGI,HCT-15 colon,> 100 µM
same,TGI,SW-620 colon,> 100 µM
same,TGI,NCI-H226 lung,> 100 µM
same,TGI,MCF7 breast,> 100 µM
same,TGI,HCC-2998 colon,> 100 µM
same,TGI,T-47D breast,> 100 µM
same,TGI,PC-3 prostate,> 100 µM
same,TGI,DU-145 prostate,> 100 µM
same,TGI,NCI-H23 lung,> 100 µM
O=C(NCCCCCCNC(=O)c1cccc2ccccc12)Nc1cccc2ccccc12,TGI,MDA-N,> 100 µM
same,TGI,MDA-MB-435,> 100 µM
same,TGI,LOX IMVI melanoma,> 100 µM
same,TGI,OVCAR-3 ovarian,> 100 µM
same,TGI,HT29 colon,> 100 µM
same,TGI,OVCAR-8 ovarian,> 100 µM
same,TGI,K-562 leukemia,> 100 µM
same,TGI,SK-MEL-2 melanoma,> 100 µM
same,TGI,SN12C renal,> 100 µM
same,TGI,SK-MEL-28 melanoma,> 100 µM
same,TGI,SF-295 CNS,> 100 µM
same,TGI,EKVX NSCLC,> 100 µM
same,TGI,RPMI-8226 leukemia,> 100 µM
same,TGI,UACC-62 melanoma,> 100 µM
same,TGI,M14 melanoma,> 100 µM
same,TGI,CCRF-CEM leukemia,> 100 µM
same,TGI,HOP-62 NSCLC,> 100 µM
same,TGI,OVCAR-4 ovarian,> 100 µM
same,TGI,SNB-75 CNS,> 100 µM
same,TGI,786-0 renal,> 100 µM
same,TGI,SF-268 CNS,> 100 µM
same,TGI,HOP-92 NSCLC,> 100 µM
same,TGI,COLO 205 colon,> 100 µM
same,TGI,RXF 393 renal,> 100 µM
same,TGI,SK-MEL-5 melanoma,> 100 µM
same,TGI,HL-60(TB) leukemia,> 100 µM
same,TGI,A498 renal,> 100 µM
same,TGI,SNB-19 CNS,> 100 µM
same,TGI,NCI/ADR-RES ovarian,> 100 µM
same,TGI,UO-31 renal,> 100 µM
same,TGI,U251 CNS,> 100 µM
same,TGI,HCT-116 colon,> 100 µM
same,TGI,TK-10 renal,> 100 µM
same,TGI,NCI-H460 lung,> 100 µM
same,TGI,IGROV1 ovarian,> 100 µM
same,TGI,HS 578T breast,> 100 µM
same,TGI,A549 NSCLC,> 100 µM
same,TGI,NCI-H522 lung,> 100 µM
same,TGI,ACHN renal,> 100 µM
same,TGI,MDA-MB-231 breast,> 100 µM
same,TGI,KM12 colon,> 100 µM
same,TGI,SF-539 CNS,> 100 µM
same,TGI,MALME-3M melanoma,> 100 µM
same,TGI,BT-549 breast,> 100 µM
same,TGI,MOLT-4 leukemia,> 100 µM
same,TGI,OVCAR-5 ovarian,> 100 µM
same,TGI,UACC-257 melanoma,> 100 µM
same,TGI,HCT-15 colon,> 100 µM
same,TGI,SW-620 colon,> 100 µM
same,TGI,MCF7 breast,> 100 µM
same,TGI,HCC-2998 colon,> 100 µM
same,TGI,T-47D breast,> 100 µM
same,TGI,CAKI-1 renal,> 100 µM
same,TGI,PC-3 prostate,> 100 µM
same,TGI,DU-145 prostate,> 100 µM
same,TGI,NCI-H23 lung,> 100 µM
CS(=O)(=O)Nc1ccc(N2Cc3cnc4ccc5[nH]ccc2c5c34)cc1,TGI,MDA-N,29.3 µM
same,TGI,MDA-MB-435,31.5 µM
same,TGI,LOX IMVI melanoma,28.2 µM
same,TGI,OVCAR-3 ovarian,32.2 µM
same,TGI,HT29 colon,95.7 µM
same,TGI,OVCAR-8 ovarian,62.5 µM
same,TGI,K-562 leukemia,38.7 µM
same,TGI,SK-MEL-2 melanoma,31.7 µM
same,TGI,SN12C renal,35 µM
same,TGI,SK-MEL-28 melanoma,41.6 µM
same,TGI,SF-295 CNS,> 100 µM
same,TGI,EKVX NSCLC,> 100 µM
same,TGI,RPMI-8226 leukemia,48.1 µM
same,TGI,UACC-62 melanoma,35.9 µM
same,TGI,M14 melanoma,32.2 µM
same,TGI,CCRF-CEM leukemia,> 100 µM
same,TGI,HOP-62 NSCLC,59.2 µM
same,TGI,OVCAR-4 ovarian,46.6 µM
same,TGI,786-0 renal,40.3 µM
same,TGI,HOP-92 NSCLC,63.6 µM
same,TGI,COLO 205 colon,32.2 µM
same,TGI,SK-MEL-5 melanoma,29 µM
same,TGI,HL-60(TB) leukemia,64.4 µM
same,TGI,A498 renal,49.4 µM
same,TGI,SNB-19 CNS,42 µM
same,TGI,NCI/ADR-RES ovarian,> 100 µM
same,TGI,UO-31 renal,> 100 µM
same,TGI,U251 CNS,36.5 µM
same,TGI,HCT-116 colon,27.8 µM
same,TGI,TK-10 renal,89.1 µM
same,TGI,NCI-H460 lung,46.2 µM
same,TGI,IGROV1 ovarian,79.9 µM
same,TGI,HS 578T breast,> 100 µM
same,TGI,A549 NSCLC,> 100 µM
same,TGI,NCI-H522 lung,29.5 µM
same,TGI,ACHN renal,> 100 µM
same,TGI,MDA-MB-231 breast,37.5 µM
same,TGI,KM12 colon,> 100 µM
same,TGI,MALME-3M melanoma,19.1 µM
same,TGI,BT-549 breast,51.3 µM
same,TGI,MOLT-4 leukemia,8.94 µM
same,TGI,OVCAR-5 ovarian,84.5 µM
same,TGI,UACC-257 melanoma,31.8 µM
same,TGI,HCT-15 colon,> 100 µM
same,TGI,SW-620 colon,> 100 µM
same,TGI,NCI-H226 lung,42.2 µM
same,TGI,MCF7 breast,> 100 µM
same,TGI,T-47D breast,20.5 µM
same,TGI,CAKI-1 renal,> 100 µM
same,TGI,PC-3 prostate,42 µM
same,TGI,DU-145 prostate,40.9 µM
same,TGI,NCI-H23 lung,76.9 µM

# — PubChem BioAssay (NCI)
